Assay results taken from PubChem BioAssay (NCI).
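Grown in 96-well plates, cells were treated for 48 hours with each compound at five concentrations. Insufficient inhibition: endpoint recorded as highest concentration tested. Abbreviation: GI50, concentration required for 50% inhibition of growth. TGI: concentration producing complete growth inhibition.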

How the values were obtained:
Test in all cases: NCI tumour cell line growth inhibition, 48 h
[1] = tested on: DU-145 prostate
[2] = tested on: COLO 205 colon
[3] = tested on: UACC-257 melanoma
[4] = tested on: MDA-MB-468 breast
[5] = tested on: K-562 leukemia
[6] = tested on: SF-539 CNS
[7] = tested on: SK-MEL-5 melanoma
[8] = tested on: HCT-116 colon
[9] = tested on: NCI-H23 lung
[10] = tested on: UACC-62 melanoma
[11] = tested on: MCF7 breast
[12] = tested on: HT29 colon
[13] = tested on: 786-0 renal
[14] = tested on: U251 CNS
[15] = tested on: HCT-15 colon
[16] = tested on: SK-MEL-2 melanoma
[17] = tested on: KM12 colon
[18] = tested on: SF-295 CNS
[19] = tested on: T-47D breast
[20] = tested on: A549 NSCLC
[21] = tested on: SW-620 colon
[22] = tested on: IGROV1 ovarian
[23] = tested on: SN12C renal
[24] = tested on: SNB-75 CNS
[25] = tested on: MALME-3M melanoma
[26] = tested on: HS 578T breast
[27] = tested on: SNB-19 CNS
[28] = tested on: HOP-92 NSCLC

CN(C)c1nc(NCCNS(=O)(=O)c2ccc(C3=Nc4c(N)nc(N)nc4NC(c4ccc(Cl)cc4)C3)cc2)nc(Nc2ccc(F)cc2)n1 (stereo unspecified)
GI50 [1]: > 100 µM
TGI [1]: > 100 µM
GI50 [2]: 5.65 µM
TGI [2]: 25.6 µM
GI50 [3]: 8.07 µM
TGI [3]: > 100 µM
GI50 [4]: 1.92 µM
TGI [4]: 4.92 µM
GI50 [5]: 3.08 µM
TGI [5]: > 100 µM
GI50 [6]: 3.3 µM
TGI [6]: > 100 µM
GI50 [7]: 3.45 µM
TGI [7]: 14.3 µM
GI50 [8]: 3.77 µM
TGI [8]: > 100 µM
GI50 [9]: 72.7 µM
TGI [9]: > 100 µM
GI50 [10]: 6.46 µM
TGI [10]: > 100 µM
GI50 [11]: 2.89 µM
TGI [11]: > 100 µM
GI50 [12]: 2.68 µM
TGI [12]: 7.54 µM
GI50 [13]: 6.21 µM
TGI [13]: > 100 µM
GI50 [14]: 5.14 µM
TGI [14]: > 100 µM
GI50 [15]: > 100 µM
TGI [15]: > 100 µM
GI50 [16]: 3.34 µM
TGI [16]: 14 µM
GI50 [17]: 3.98 µM
TGI [17]: > 100 µM
GI50 [18]: 6.2 µM
TGI [18]: > 100 µM
GI50 [19]: 7.93 µM
TGI [19]: > 100 µM
GI50 [20]: > 100 µM
TGI [20]: > 100 µM
GI50 [21]: 5.95 µM
TGI [21]: > 100 µM
GI50 [22]: 9.95 µM
TGI [22]: > 100 µM
GI50 [23]: 7.38 µM
TGI [23]: > 100 µM
GI50 [24]: 3.76 µM
TGI [24]: > 100 µM
GI50 [25]: 3.86 µM
TGI [25]: 19.2 µM
GI50 [26]: 7.15 µM
TGI [26]: > 100 µM
GI50 [27]: 5.67 µM
TGI [27]: > 100 µM
GI50 [28]: 2.53 µM
TGI [28]: 13.2 µM
